What was measured:
HDAC1 [1] = target: T1, HDAC1 (Homo sapiens, UniProt Q13547); test: biochemical; settings: read-out: kdis (1/s)
HDAC2 [2] = target: T2, HDAC2 (Homo sapiens, UniProt Q92769); test: biochemical; settings: read-out: kdis (1/s)
HDAC1 [3] = target: T1, HDAC1; test: biochemical; settings: read-out: ka (1/Ms)
HDAC1 [4] = target: T1, HDAC1; test: biolayer interferometry, […] global fit; format: binding
HDAC8 [5] = target: T3, HDAC8 (Homo sapiens, UniProt Q9BY41); test: biochemical; settings: read-out: kdis (1/s)
T3 sequence (Q9BY41 1-377): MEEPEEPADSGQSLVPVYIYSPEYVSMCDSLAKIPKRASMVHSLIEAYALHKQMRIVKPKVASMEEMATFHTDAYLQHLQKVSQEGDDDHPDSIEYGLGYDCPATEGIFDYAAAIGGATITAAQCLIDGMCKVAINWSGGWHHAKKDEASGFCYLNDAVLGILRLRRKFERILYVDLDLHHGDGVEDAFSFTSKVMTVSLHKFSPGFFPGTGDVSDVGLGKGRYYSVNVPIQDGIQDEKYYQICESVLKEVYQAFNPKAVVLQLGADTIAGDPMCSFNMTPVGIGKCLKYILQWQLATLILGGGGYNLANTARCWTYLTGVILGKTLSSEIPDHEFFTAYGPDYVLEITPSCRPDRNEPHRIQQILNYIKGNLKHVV

HDAC2 [6] = target: T2, HDAC2; test: biolayer interferometry, […] global fit; format: binding
HDAC2 [7] = target: T2, HDAC2; test: biochemical; settings: read-out: ka (1/Ms)
HDAC8 [8] = target: T3, HDAC8; test: RapidFire mass spectrometry deacetylase assay; format: biochemical
HDAC8 [9] = target: T3, HDAC8; test: biolayer interferometry, […] global fit; format: binding
HDAC8 [10] = target: T3, HDAC8; test: biochemical; settings: read-out: ka (1/Ms)
HDAC1 [11] = target: T1, HDAC1; test: biochemical

T1 sequence (Q13547 whole entry): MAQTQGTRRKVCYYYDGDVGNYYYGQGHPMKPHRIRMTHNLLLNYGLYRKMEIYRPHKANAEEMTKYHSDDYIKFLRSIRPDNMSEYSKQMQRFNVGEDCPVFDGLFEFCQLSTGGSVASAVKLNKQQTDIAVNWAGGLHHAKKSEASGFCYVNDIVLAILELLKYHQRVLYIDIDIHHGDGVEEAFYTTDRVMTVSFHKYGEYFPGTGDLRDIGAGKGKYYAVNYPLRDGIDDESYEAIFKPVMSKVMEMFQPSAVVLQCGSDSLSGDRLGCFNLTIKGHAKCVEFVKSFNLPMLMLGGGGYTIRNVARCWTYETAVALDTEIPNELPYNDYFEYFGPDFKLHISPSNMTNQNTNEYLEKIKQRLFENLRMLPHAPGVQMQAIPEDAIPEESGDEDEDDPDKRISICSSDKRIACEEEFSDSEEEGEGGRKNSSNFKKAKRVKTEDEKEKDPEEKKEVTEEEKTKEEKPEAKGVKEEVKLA
T2 sequence (Q92769 whole entry): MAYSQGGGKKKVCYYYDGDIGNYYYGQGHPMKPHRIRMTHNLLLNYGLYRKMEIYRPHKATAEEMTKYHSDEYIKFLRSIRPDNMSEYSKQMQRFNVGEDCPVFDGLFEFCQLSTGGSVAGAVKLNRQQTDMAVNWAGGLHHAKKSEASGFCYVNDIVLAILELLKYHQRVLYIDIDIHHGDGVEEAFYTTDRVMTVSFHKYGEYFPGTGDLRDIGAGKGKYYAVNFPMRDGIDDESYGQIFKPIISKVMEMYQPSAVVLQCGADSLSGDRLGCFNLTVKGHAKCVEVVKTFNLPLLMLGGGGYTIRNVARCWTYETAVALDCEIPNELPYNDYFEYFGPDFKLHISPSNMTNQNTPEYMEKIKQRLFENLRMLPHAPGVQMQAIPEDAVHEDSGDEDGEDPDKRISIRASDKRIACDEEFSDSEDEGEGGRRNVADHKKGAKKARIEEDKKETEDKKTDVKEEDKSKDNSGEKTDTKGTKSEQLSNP

- koff (HDAC1 [1]): 0.00134 s⁻¹
- koff (HDAC2 [2]): 0.00125 s⁻¹
- kon (HDAC1 [3]): 15500 M⁻¹ s⁻¹
- Kd (HDAC1 [4]): 94.9 ± 0.8 nM
- koff (HDAC8 [5]): 0.0013 s⁻¹
- Kd (HDAC2 [6]): 142.8 ± 1 nM
- kon (HDAC2 [7]): 8740 M⁻¹ s⁻¹
- EC50 (HDAC8 [8]): 270 nM
- Kd (HDAC8 [9]): 257.9 ± 1.7 nM
- kon (HDAC8 [10]): 5050 M⁻¹ s⁻¹
- EC50 (HDAC1 [11]): 160 nM
SMILES: O=C(c1cc(O)c(O)c(O)c1)c1ccc(O)c(O)c1O [Exifone, 2,3,3’,4,4’,5’-hexahydroxybenzophenone]

Reference: article doi:10.1101/2020.03.02.973636v3 (biorxiv, 2020)
